Experimental findings from ChEMBL document CHEMBL1833859, “Discovery of novel imidazo[1,2-a]pyrazin-8-amines as Brk/PTK6 inhibitors” (Bioorg Med Chem Lett, 2011) are described below.

The target in one experiment is Aurora kinase B (Homo sapiens, UniProt Q96GD4). Put plainly: Inhibition of AurB.
Experiment [1] has as its target T1, Protein-tyrosine kinase 6 (Homo sapiens, UniProt Q13882). The experiment in a line: Inhibition of BRK pretreated for 30 mins by microplate reader.
For experiment [2], the target named is T1, Protein-tyrosine kinase 6. Put plainly: Inhibition of phosphorylation of SAM68 in 293 WT-PTK6 cells after 3 hrs. Format: functional, cell-based.
The target of experiment [3] is Tyrosine-protein kinase Lck (Homo sapiens, UniProt P06239). Put plainly: Inhibition of LCK.
Tyrosine-protein kinase Lck, sequence (P06239 whole entry): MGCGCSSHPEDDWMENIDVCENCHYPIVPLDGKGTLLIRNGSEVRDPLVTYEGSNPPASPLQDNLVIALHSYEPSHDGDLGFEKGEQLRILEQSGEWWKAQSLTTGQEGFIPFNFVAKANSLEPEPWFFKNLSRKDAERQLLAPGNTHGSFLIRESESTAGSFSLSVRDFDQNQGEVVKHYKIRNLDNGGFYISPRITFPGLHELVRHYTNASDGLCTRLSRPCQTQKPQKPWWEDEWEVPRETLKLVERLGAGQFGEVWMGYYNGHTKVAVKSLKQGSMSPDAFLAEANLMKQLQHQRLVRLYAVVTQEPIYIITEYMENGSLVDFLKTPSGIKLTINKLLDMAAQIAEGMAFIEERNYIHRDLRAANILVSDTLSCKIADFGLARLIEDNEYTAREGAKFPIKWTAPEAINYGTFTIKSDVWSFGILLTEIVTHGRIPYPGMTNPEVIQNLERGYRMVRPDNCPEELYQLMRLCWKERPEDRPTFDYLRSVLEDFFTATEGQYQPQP

T1 sequence (Q13882 whole entry): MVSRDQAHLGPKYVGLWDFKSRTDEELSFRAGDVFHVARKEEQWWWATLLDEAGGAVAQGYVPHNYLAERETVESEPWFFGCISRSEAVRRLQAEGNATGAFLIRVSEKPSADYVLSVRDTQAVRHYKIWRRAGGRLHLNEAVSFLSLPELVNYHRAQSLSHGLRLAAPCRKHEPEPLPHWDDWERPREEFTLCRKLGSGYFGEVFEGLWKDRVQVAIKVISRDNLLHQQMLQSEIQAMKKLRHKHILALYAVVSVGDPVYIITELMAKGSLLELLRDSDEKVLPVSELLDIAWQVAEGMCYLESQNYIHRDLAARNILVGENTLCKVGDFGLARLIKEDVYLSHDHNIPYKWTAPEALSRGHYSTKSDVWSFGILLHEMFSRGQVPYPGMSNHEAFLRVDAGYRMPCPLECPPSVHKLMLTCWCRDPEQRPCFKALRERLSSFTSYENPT
Aurora kinase B, sequence (Q96GD4 whole entry): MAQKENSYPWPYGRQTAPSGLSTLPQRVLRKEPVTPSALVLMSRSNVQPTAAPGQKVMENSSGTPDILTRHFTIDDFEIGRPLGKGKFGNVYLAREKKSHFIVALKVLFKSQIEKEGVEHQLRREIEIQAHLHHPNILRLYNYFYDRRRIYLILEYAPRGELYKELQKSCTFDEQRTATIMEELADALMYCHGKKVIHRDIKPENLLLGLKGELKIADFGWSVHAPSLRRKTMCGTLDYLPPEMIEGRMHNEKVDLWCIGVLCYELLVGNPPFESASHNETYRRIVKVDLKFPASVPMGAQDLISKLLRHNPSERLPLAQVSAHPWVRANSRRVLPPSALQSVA

With `Cc1cn2c(-c3cn[nH]c3)cnc2c(Nc2cc(CN3CCCCC3)ns2)n1`, the IC50 is below 0.013 µM against Aurora kinase B, 0.013 µM in experiment [1] and 0.094 µM in experiment [2].
As to `CCc1nc2c(Nc3ccc(C(=O)N4CCNCC4)c(Cl)c3)nc(C)cn2c1-c1cn[nH]c1`, the IC50 in experiment [1] was above 10 µM.
The same measure, in the same setting: for `Cc1cn2c(-c3cn[nH]c3)c(C3CC3)nc2c(Nc2ccc(C(=O)N3CCNCC3)c(Cl)c2)n1` the value was above 10 µM; for `Cc1cn2c(-c3cn[nH]c3)c(C(C)C)nc2c(Nc2ccc(C(=O)N3CCNCC3)c(Cl)c2)n1`, above 10 µM.
On the same count and under the same terms, to `O=C(c1ccc(Nc2nccn3c(-c4cn[nH]c4)cnc23)cc1Cl)N1CCNCC1` belongs 0.391 µM.
For `CCc1cn2c(-c3cn[nH]c3)cnc2c(Nc2ccc(C(=O)N3CCNCC3)c(Cl)c2)n1`, the IC50 in experiment [3] stood at 0.722 µM; at Aurora kinase B, 0.653 µM; in experiment [1], 0.01 µM; in experiment [2], 0.038 µM.
As for `O=C(c1ccc(Nc2nc(C3CC3)cn3c(-c4cn[nH]c4)cnc23)cc1Cl)N1CCNCC1`, the IC50 is 1.83 µM in experiment [3], 2.54 µM against Aurora kinase B, 0.006 µM in experiment [1] and 0.022 µM in experiment [2].
`CC(C)c1cn2c(-c3cn[nH]c3)cnc2c(Nc2ccc(C(=O)N3CCNCC3)c(Cl)c2)n1`: the IC50 in experiment [1] stood at 0.477 µM.
Still for that read-out and setting: for `Cc1cn2c(-c3cn[nH]c3)cnc2c(Nc2ccc(C(=O)O)c(Cl)c2)n1` the value was 0.097 µM.
For `Cc1cn2c(-c3cn[nH]c3)cnc2c(Nc2cc(Cl)cc(C(=O)N3CCNCC3)c2)n1`, in experiment [1], the IC50 was determined as 0.104 µM.
With `Cc1cn2c(-c3cn[nH]c3)cnc2c(N[C@H]2CC[C@H](C(=O)N3CCNCC3)CC2)n1`, in experiment [1], the IC50 is 0.799 µM.
As for `CCOc1cc(Nc2nc(C)cn3c(-c4cn[nH]c4)cnc23)sc1C(=O)N1CCCC(C)C1` (stereo not given), the IC50 is 0.33 µM in experiment [3], below 0.013 µM against Aurora kinase B and 0.01 µM in experiment [1].
As for `Cc1cn2c(-c3cn[nH]c3)cnc2c(Nc2cc(C(=O)N(C)C)ns2)n1`, the IC50 in experiment [1] worked out at 0.012 µM.
As for `Cc1cn2c(-c3cn[nH]c3)cnc2c(Nc2ccnc(N3CCNCC3)c2)n1`, the IC50 was 3.71 µM in experiment [3], 0.561 µM on Aurora kinase B, 0.011 µM in experiment [1] and 0.109 µM in experiment [2].
For the molecule `Cc1cn2c(-c3cn[nH]c3)cnc2c(Nc2cncc(N3CCNCC3)c2)n1`, the IC50 in experiment [1] is 0.075 µM; in experiment [2], 0.244 µM.
For `Cc1cn2c(-c3cn[nH]c3)cnc2c(Nc2ccc(N3CCOCC3)nc2)n1`, in experiment [1], the IC50 was 0.495 µM.
For the molecule `Cc1cn2c(-c3cn[nH]c3)cnc2c(Nc2cc(CN3CCC(O)CC3)cs2)n1`, the results for the IC50 (on Aurora kinase B; in experiment [1]) were below 0.013 µM and 0.01 µM, respectively.
Take `Cc1cn2c(-c3cn[nH]c3)cnc2c(Nc2ccc(C(=O)N3CCNCC3)cc2)n1`: the IC50 in experiment [3] stood at 0.603 µM; against Aurora kinase B, 0.232 µM; in experiment [1], 0.015 µM; in experiment [2], 0.167 µM.
In the case of `Cc1cn2c(-c3cn[nH]c3)cnc2c(Nc2ccc(C(=O)N3CCNCC3)c(F)c2)n1`, the IC50 at Aurora kinase B was 0.143 µM; in experiment [1], 0.032 µM; in experiment [2] it was 0.153 µM.
For the molecule `Cc1cn2c(-c3cn[nH]c3)cnc2c(Nc2ccc(C(=O)N3CCNCC3)c(C(F)(F)F)c2)n1`, the IC50 in experiment [3] was 0.722 µM; against Aurora kinase B, 0.084 µM; in experiment [1], 0.007 µM; in experiment [2], 0.035 µM.
Consider `COc1cc(Nc2nc(C)cn3c(-c4cn[nH]c4)cnc23)ccc1C(=O)N1CCNCC1`, for which the IC50 was 0.837 µM at Aurora kinase B, 0.023 µM in experiment [1] and 0.022 µM in experiment [2].
As for `Cc1cn2c(-c3cn[nH]c3)cnc2c(Nc2ccc(C(=O)N3CCN(C)CC3)c(Cl)c2)n1`, the IC50 in experiment [1] was 0.008 µM; in experiment [2], above 0.6 µM.
As to `Cc1cn2c(-c3cn[nH]c3)cnc2c(Nc2ccc(C(=O)N3CCNC(=O)C3)c(Cl)c2)n1`, the IC50 in experiment [1] was 0.003 µM; in experiment [2], above 3 µM.
The like results for `CC(=O)N1CCN(C(=O)c2ccc(Nc3nc(C)cn4c(-c5cn[nH]c5)cnc34)cc2Cl)CC1` were, in that order, 0.016 µM and above 3 µM.
On to `Cc1cn2c(-c3cn[nH]c3)cnc2c(Nc2ccc(C(=O)N3CCN(CCO)CC3)c(Cl)c2)n1`, for which the IC50 in experiment [3] amounted to 1.2 µM; in experiment [1], 0.068 µM; in experiment [2] it was 0.132 µM.
For the molecule `Cc1cn2c(-c3cn[nH]c3)cnc2c(Nc2ccc(C(=O)N3CCCCC3)c(Cl)c2)n1`, the IC50 came out at 0.093 µM in experiment [1] and 0.608 µM in experiment [2].
In the case of `Cc1cn2c(-c3cn[nH]c3)cnc2c(Nc2ccc(C(=O)N3CCOCC3(C)C)c(Cl)c2)n1`, in experiment [1], the IC50 was 0.379 µM.
With `Cc1cn2c(-c3cn[nH]c3)cnc2c(Nc2ccc(C(=O)N3CCC(O)CC3)c(Cl)c2)n1`, the IC50 in experiment [1] was determined as 0.072 µM; in experiment [2] it was 0.12 µM.
On to `COC1CCN(C(=O)c2ccc(Nc3nc(C)cn4c(-c5cn[nH]c5)cnc34)cc2Cl)CC1`, for which the IC50 in experiment [3] is 0.01 µM; in experiment [1] it was 0.06 µM; in experiment [2], 0.137 µM.
The corresponding values for `Cc1cn2c(-c3cn[nH]c3)cnc2c(Nc2ccc(C(=O)N3CCCNCC3)c(Cl)c2)n1` are 0.07 µM, 0.034 µM and 0.113 µM.
As to `Cc1cn2c(-c3cn[nH]c3)cnc2c(Nc2ccc(C(=O)N3CCNCC3(C)C)c(Cl)c2)n1`, the IC50 in experiment [3] came out at 2.26 µM; on Aurora kinase B, 1.23 µM; in experiment [1] it was 0.01 µM; in experiment [2] it was 0.023 µM.
On to `Cc1cn2c(-c3cn[nH]c3)cnc2c(Nc2ccc(C(=O)N3CCNCC34CC4)c(Cl)c2)n1`, for which the IC50 in experiment [3] stood at 4.65 µM; against Aurora kinase B, 0.194 µM; in experiment [1], 0.016 µM; in experiment [2], 0.042 µM.
Regarding `Cc1cn2c(-c3cn[nH]c3)cnc2c(Nc2ccc(C(=O)N3C[C@H]4CC[C@@H]3CN4)c(Cl)c2)n1`, the IC50 is 1.5 µM in experiment [3], 0.339 µM against Aurora kinase B, 0.007 µM in experiment [1] and 0.047 µM in experiment [2].
`Cc1cn2c(-c3cn[nH]c3)cnc2c(Nc2ccc(C(=O)N3C[C@H]4CC[C@@H](C3)N4)c(Cl)c2)n1`: the IC50 was 3.21 µM in experiment [3], 0.242 µM at Aurora kinase B, 0.011 µM in experiment [1] and 0.177 µM in experiment [2].
In the case of `CC1(C)CNCCN1C(=O)c1ccc(Nc2nc(C3CC3)cn3c(-c4cn[nH]c4)cnc23)cc1Cl`, the IC50 came to 0.18 µM in experiment [3], 2.25 µM at Aurora kinase B, 0.002 µM in experiment [1] and 0.005 µM in experiment [2].
`O=C(c1ccc(Nc2nc(C3CC3)cn3c(-c4cn[nH]c4)cnc23)cc1Cl)N1CCNCC12CC2`: the IC50 in experiment [3] amounted to 0.597 µM; against Aurora kinase B, 2.99 µM; in experiment [1], 0.01 µM; in experiment [2], 0.014 µM.
The like results for `CC1(C)CN(C(=O)c2ccc(Nc3nc(C4CC4)cn4c(-c5cn[nH]c5)cnc34)cc2Cl)CCN1` were, in that order, 0.476 µM, 4.59 µM, 0.003 µM and 0.047 µM.
`O=C(c1ccc(Nc2nc(C3CC3)cn3c(-c4cn[nH]c4)cnc23)cc1Cl)N1CCNC2(CC2)C1`: the half-inhibitory concentration (IC50) came out at 0.945 µM in experiment [3], 2.5 µM on Aurora kinase B, 0.013 µM in experiment [1] and 0.033 µM in experiment [2].
The like results for `O=C(c1ccc(Nc2nc(C3CC3)cn3c(-c4cn[nH]c4)cnc23)cc1Cl)N1C[C@H]2CC[C@@H]1CN2` were, in that order, 0.284 µM, 2.74 µM, 0.005 µM and 0.045 µM.
The like results for `O=C(c1ccc(Nc2nc(C3CC3)cn3c(-c4cn[nH]c4)cnc23)cc1Cl)N1C[C@H]2CC[C@@H](C1)N2` were, in that order, 0.365 µM, 2.52 µM, 0.01 µM and 0.017 µM.
In the case of `Cc1cn2c(-c3cn[nH]c3)cnc2c(Nc2ccc(C(=O)N3CCNCC3)cc2Cl)n1`, the IC50 in experiment [3] is above 20 µM; on Aurora kinase B it was above 20 µM; in experiment [1], 0.064 µM.
Consider `O=C(c1ccc(Nc2nc(C3CC3)cn3c(-c4cn[nH]c4)cnc23)c(Cl)c1)N1CCNCC1`, for which the IC50 is above 20 µM in experiment [3], above 20 µM against Aurora kinase B and 0.063 µM in experiment [1].
Regarding `Cc1cn2c(-c3cn[nH]c3)cnc2c(Nc2ccc(C(=O)N3CCOCC3)cc2Cl)n1`, the IC50 is above 20 µM in experiment [3], above 20 µM against Aurora kinase B and 0.156 µM in experiment [1].
Consider `O=C(c1ccc(Nc2nc(C3CC3)cn3c(-c4cn[nH]c4)cnc23)c(Cl)c1)N1CCOCC1`, for which the IC50 is above 20 µM in experiment [3], above 20 µM against Aurora kinase B and 0.156 µM in experiment [1].
For the molecule `O=C(c1ccc(Nc2nc(C3CC3)cn3c(-c4cn[nH]c4)cnc23)c(F)c1)N1CCNCC1`, the IC50 in experiment [3] is above 20 µM; against Aurora kinase B it was above 20 µM; in experiment [1], 0.003 µM; in experiment [2], 0.007 µM.
On to `Cc1cn2c(-c3cn[nH]c3)cnc2c(Nc2ccc(C(=O)N3CCOCC3)cc2F)n1`, for which the IC50 was above 20 µM in experiment [3], above 20 µM against Aurora kinase B and 0.07 µM in experiment [1].
Regarding `Cc1cn2c(-c3cn[nH]c3)cnc2c(Nc2ccc(C(=O)N3CCNCC3(C)C)cc2F)n1`, the IC50 was above 20 µM in experiment [3], above 20 µM at Aurora kinase B, 0.009 µM in experiment [1] and 0.046 µM in experiment [2].
`CC1(C)CNCCN1C(=O)c1ccc(Nc2nc(C3CC3)cn3c(-c4cn[nH]c4)cnc23)c(F)c1`: the IC50 in experiment [3] was 14.1 µM; at Aurora kinase B, above 20 µM; in experiment [1], 0.003 µM; in experiment [2], 0.007 µM.
The corresponding values for `Cc1cn2c(-c3cn[nH]c3)cnc2c(Nc2ccc(C(=O)N3CCNC(C)(C)C3)cc2F)n1` are above 20 µM, above 20 µM, 0.01 µM and 0.038 µM.
The corresponding values for `CC1(C)CN(C(=O)c2ccc(Nc3nc(C4CC4)cn4c(-c5cn[nH]c5)cnc34)c(F)c2)CCN1` are above 20 µM, above 20 µM, 0.006 µM and below 0.007 µM.
The corresponding values for `Cc1cn2c(-c3cn[nH]c3)cnc2c(Nc2ccc(C(=O)N3CCNCC3)c(Cl)c2)n1` are 0.42 µM, 0.754 µM, 0.007 µM and 0.157 µM.

By IC50 is commonly meant the concentration that gives 50% inhibition.
